In ChEMBL document CHEMBL2380259, “Indazole-based potent and cell-active Mps1 kinase inhibitors: rational design from pan-kinase inhibitor anthrapyrazolone (SP600125)” (J Med Chem, 2013):

Legend:
[1] = test system: A549; assay: cells; details: Homo sapiens, A549, 72 h
[2] = molecular target: T1, Dual specificity protein kinase TTK (Homo sapiens, UniProt P33981); assay: Inhibition of MPS1 (unknown origin) using biotin-labeled AGAGLARHTDDEMTGYVA as substrate after 90 mins by DELFIA
T1 sequence (P33981 whole entry): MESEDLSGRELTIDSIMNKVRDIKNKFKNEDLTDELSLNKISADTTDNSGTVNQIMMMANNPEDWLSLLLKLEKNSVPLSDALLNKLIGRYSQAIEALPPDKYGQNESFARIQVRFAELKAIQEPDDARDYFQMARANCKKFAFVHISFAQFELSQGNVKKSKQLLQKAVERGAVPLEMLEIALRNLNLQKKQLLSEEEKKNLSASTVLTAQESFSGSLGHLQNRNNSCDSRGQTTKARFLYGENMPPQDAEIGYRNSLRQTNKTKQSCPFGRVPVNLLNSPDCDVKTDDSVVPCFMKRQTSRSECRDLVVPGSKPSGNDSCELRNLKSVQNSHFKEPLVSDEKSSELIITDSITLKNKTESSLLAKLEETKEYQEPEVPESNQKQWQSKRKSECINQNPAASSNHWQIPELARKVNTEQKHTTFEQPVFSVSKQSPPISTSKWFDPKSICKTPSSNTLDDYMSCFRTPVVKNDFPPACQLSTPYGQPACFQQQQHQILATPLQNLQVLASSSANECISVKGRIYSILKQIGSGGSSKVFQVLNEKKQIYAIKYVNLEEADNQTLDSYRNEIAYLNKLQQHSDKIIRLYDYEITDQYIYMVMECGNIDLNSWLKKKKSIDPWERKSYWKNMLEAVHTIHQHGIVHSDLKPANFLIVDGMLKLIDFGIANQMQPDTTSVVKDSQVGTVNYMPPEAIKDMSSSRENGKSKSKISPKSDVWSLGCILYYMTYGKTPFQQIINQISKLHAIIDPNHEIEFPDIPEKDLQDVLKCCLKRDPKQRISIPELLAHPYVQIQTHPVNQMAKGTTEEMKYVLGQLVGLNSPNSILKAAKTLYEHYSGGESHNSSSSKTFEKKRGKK

[3] = molecular target: Mitogen-activated protein kinase 8 (Homo sapiens, UniProt P45983); assay: Inhibition of JNK1 (unknown origin) using ATF2 as substrate measured after 1 hr by ELISA
[4] = Lipophilicity index, log K of the compound by RP-HPLC analysis; assay type: physicochemical
[5] = molecular target: T1, Dual specificity protein kinase TTK; assay: Inhibition of FLAG-tagged MPS1 phosphorylation in human RERF-LC-AI Tet-off cells after 3 hrs; assay type: cell-based
[6] = Apparent permeability across MDCK cells; assay type: ADME, cell-based, Canis lupus familiaris; details: dog
[7] = Cmax in Sprague-Dawley rat at 1 mg/kg, po by LC-MS/MS analysis; assay type: ADME, organism-based; set-up: dose 1 mg/kg, route oral; details: in vivo
[8] = molecular target: Serine/threonine-protein kinase PLK1 (Homo sapiens, UniProt P53350); assay: Inhibition of human PLK1
[9] = Oral bioavailability in Sprague-Dawley rat at 1 mg/kg by LC-MS/MS analysis; assay type: ADME, organism-based; details: in vivo
[10] = Volume of distribution at steady state in Sprague-Dawley rat at 0.5 mg/kg, iv by LC-MS/MS analysis; assay type: ADME, organism-based; set-up: dose 0.5 mg/kg, route intravenous; details: in vivo, read-out: Vdss
[11] = Clearance in Sprague-Dawley rat at 0.5 mg/kg, iv by LC-MS/MS analysis; assay type: ADME, organism-based; set-up: dose 0.5 mg/kg, route intravenous; details: in vivo
[12] = Metabolic stability in Sprague-Dawley rat hepatocytes assessed as compound remaining at 2 uM after 1 hr by LC-MS/MS analysis; assay type: ADME, cell-based, Hepatocyte; details: read-out: Stability
[13] = AUC in Sprague-Dawley rat at 1 mg/kg, po by LC-MS/MS analysis; assay type: ADME, organism-based; set-up: dose 1 mg/kg, route oral; details: plasma
[14] = molecular target: T1, Dual specificity protein kinase TTK

Mitogen-activated protein kinase 8, sequence (P45983 whole entry): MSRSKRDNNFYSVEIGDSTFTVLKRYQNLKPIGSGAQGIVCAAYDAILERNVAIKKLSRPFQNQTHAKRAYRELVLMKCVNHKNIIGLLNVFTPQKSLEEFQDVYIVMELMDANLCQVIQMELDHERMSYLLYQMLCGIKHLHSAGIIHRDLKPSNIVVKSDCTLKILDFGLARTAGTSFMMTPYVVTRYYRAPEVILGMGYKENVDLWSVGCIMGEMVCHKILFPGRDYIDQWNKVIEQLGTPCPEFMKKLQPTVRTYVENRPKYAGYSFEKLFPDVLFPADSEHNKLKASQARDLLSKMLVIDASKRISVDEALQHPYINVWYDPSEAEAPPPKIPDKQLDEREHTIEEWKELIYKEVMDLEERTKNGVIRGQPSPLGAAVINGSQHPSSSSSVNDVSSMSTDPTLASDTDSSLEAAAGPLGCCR
Serine/threonine-protein kinase PLK1, sequence (P53350 whole entry): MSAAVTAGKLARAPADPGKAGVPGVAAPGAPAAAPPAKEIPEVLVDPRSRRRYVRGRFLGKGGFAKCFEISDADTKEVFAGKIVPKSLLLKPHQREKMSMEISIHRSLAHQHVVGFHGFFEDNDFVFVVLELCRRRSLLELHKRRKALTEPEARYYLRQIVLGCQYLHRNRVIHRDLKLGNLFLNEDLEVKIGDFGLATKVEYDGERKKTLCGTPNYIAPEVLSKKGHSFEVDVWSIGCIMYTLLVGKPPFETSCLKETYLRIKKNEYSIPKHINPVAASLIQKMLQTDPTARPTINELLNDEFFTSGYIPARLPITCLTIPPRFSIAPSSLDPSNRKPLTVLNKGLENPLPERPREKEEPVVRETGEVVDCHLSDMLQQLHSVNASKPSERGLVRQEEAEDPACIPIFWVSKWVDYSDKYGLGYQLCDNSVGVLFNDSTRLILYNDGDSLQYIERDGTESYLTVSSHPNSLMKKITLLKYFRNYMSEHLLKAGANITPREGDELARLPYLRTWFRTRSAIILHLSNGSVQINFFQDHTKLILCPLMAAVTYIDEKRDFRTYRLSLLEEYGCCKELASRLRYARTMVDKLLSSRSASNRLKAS

SMILES: CCc1cccc(CC)c1NC(=O)c1nn(C)c2c1CCc1cnc(Nc3ccc(C(=O)NC4CCN(C)CC4)cc3OC(F)(F)F)nc1-2
- IC50 [1]: 1250 nM

SMILES: Cc1cc(N2CCOCC2)ccc1Nc1nc(NC2CCCCC2)c2nc[nH]c2n1
- IC50 [1]: > 10000 nM

SMILES: CCOc1ccc2[nH]nc(-c3ccccc3)c2c1
- IC50 [2]: 498 nM

SMILES: CCOc1ccc2[nH]nc(-c3ccc(NC(C)=O)cc3)c2c1
- IC50 [3]: 169 nM
- IC50 [2]: 438 nM

SMILES: CCOc1ccc2[nH]nc(-c3cccc(NC(C)=O)c3)c2c1
- IC50 [3]: 79.5 nM
- IC50 [2]: 116 nM

SMILES: CCOc1ccc2[nH]nc(-c3cccc(C(N)=O)c3)c2c1
- IC50 [3]: 42.8 nM
- IC50 [2]: 189 nM

SMILES: CCOc1ccc2[nH]nc(-c3cccc(S(N)(=O)=O)c3)c2c1
- log K [4]: 0.79
- IC50 [3]: 150 nM
- IC50 [5]: 2740 nM
- IC50 [2]: 28 nM
- IC50 [1]: > 20000 nM

SMILES: CCOc1cc2c(-c3cccc(S(N)(=O)=O)c3)n[nH]c2cc1C#N
- log K [4]: 0.86
- IC50 [3]: 175 nM
- IC50 [5]: 3350 nM
- IC50 [2]: 17 nM
- IC50 [1]: > 20000 nM

SMILES: CCOc1cc2c(-c3cccc(NC(C)=O)c3)n[nH]c2cc1C#N
- log K [4]: 0.87
- IC50 [3]: 43 nM
- IC50 [5]: 9720 nM
- IC50 [2]: 32 nM
- IC50 [1]: 6380 nM

SMILES: CCOc1cc2c(-c3cccc(S(N)(=O)=O)c3)n[nH]c2cc1-c1ccccc1
- log K [4]: 0.91
- IC50 [3]: 1030 nM
- IC50 [5]: > 10000 nM
- IC50 [2]: 173 nM
- IC50 [1]: > 10000 nM

SMILES: CCOc1cc2c(-c3cccc(S(N)(=O)=O)c3)n[nH]c2cc1-c1cn[nH]c1
- log K [4]: 0.74
- IC50 [3]: 141 nM
- IC50 [5]: 2070 nM
- IC50 [2]: 9.76 nM
- IC50 [1]: > 10000 nM

SMILES: CCOc1cc2c(-c3cccc(S(N)(=O)=O)c3)n[nH]c2cc1-c1cnn(C)c1
- log K [4]: 0.79
- Papp [6]: 0.6 ×10⁻⁶ cm/s
- IC50 [3]: 93.7 nM
- IC50 [5]: 85.8 nM
- IC50 [2]: 3.06 nM
- IC50 [1]: 1020 nM

SMILES: CCOc1cc2c(-c3ccc(C)c(S(N)(=O)=O)c3)n[nH]c2cc1-c1cnn(C)c1
- log K [4]: 0.82
- IC50 [3]: 43.5 nM
- IC50 [5]: 198 nM
- IC50 [2]: 3.67 nM
- IC50 [1]: 686 nM

SMILES: CCOc1cc2c(-c3cccc(S(N)(=O)=O)c3)n[nH]c2cc1-c1cnn(CC(C)C)c1
- log K [4]: 0.87
- IC50 [3]: 441 nM
- IC50 [5]: 4110 nM
- IC50 [2]: 119 nM
- IC50 [1]: 6460 nM

SMILES: Cn1cc(-c2cc3[nH]nc(-c4cccc(S(N)(=O)=O)c4)c3cc2OC2CCCCC2)cn1
- log K [4]: 0.93
- IC50 [3]: 118 nM
- IC50 [5]: 74 nM
- IC50 [2]: 7.93 nM
- IC50 [1]: 646 nM

SMILES: Cn1cc(-c2cc3[nH]nc(-c4cccc(S(N)(=O)=O)c4)c3cc2NC2CCCCC2)cn1
- Cmax [7]: 1.4 ng/mL
- IC50 [8]: > 5000 nM
- bioavailability [9]: 2.3%
- Vd [10]: 2.8 L/kg
- log K [4]: 0.92
- clearance [11]: 33 mL/min/kg
- Papp [6]: 2.69 ×10⁻⁶ cm/s
- remaining at 1 h, 2 µM [12]: 69%
- AUC [13]: 11.5 ng·h/mL
- IC50 [3]: 37 nM
- IC50 [5]: 20.5 nM
- IC50 [2]: 10.4 nM
- IC50 [1]: 152 nM

SMILES: CC(=O)Nc1cccc(-c2n[nH]c3cc(-c4cnn(C)c4)c(NC4CCCCC4)cc23)c1
- Cmax [7]: 18 ng/mL
- IC50 [8]: > 5000 nM
- bioavailability [9]: 17%
- Vd [10]: 1 L/kg
- log K [4]: 0.94
- clearance [11]: 19 mL/min/kg
- Papp [6]: 20.5 ×10⁻⁶ cm/s
- remaining at 1 h, 2 µM [12]: 64%
- AUC [13]: 149 ng·h/mL
- IC50 [3]: 12.1 nM
- IC50 [5]: 30.4 nM
- IC50 [2]: 12 nM
- IC50 [1]: 283 nM

SMILES: c1ccc(-c2[nH]nc3ccccc23)cc1
- IC50 [2]: 2100 nM

SMILES: Oc1c2ccccc2c2c3c(cccc13)N=N2 [SP-600125]
- IC50 [14]: 98 nM
